“Also recorded” adds a separate entry of the source.
Assays:
LX-2 cells [1] = assay: mRNA expression (RT-qPCR) in LX-2 cells in 3D GelMa culture; type: cell-based, human; details: 5 ng/mL every 48 h from day 2
Procedure: After 1, 2 and 4 week(s) of culture, 3D constructs comprising 3D cell structures were harvested, washed twice in PBS and total ribonucleic acid (RNA) was extracted using TRIzol™ reagent. The concentration of total RNA was measured with a NanoDrop ND-1000 (NanoDrop Technologies). Complementary deoxyribonucleic acid (cDNA) was synthetized using the High Capacity cDNA reverse transcriptase kit (Applied Biosystems Foster City, CA, USA), and real-time polymerase chain reaction (PCR) was performed using the Power SYBR Green PCR master mix (Applied Biosystems Foster City, CA, USA). […] The expression levels of the target genes were normalized to those of GAPDH and determined by the ΔΔCt method. Final results were expressed as the n-fold difference in target gene expression in samples when compared with the mean expression values of the target gene for controls: either non-differentiated HepaRG (referred to as 2D) or HepaRG differentiated in standard 2D culture conditions (referred to as 2D DMSO). […]
First, the culture of LX-2 cells alone in 3D GelMa culture was assessed, with or without treatment with TGFβ-1, a classical pro-fibrotic cytokine (Czaja et al., J Cell Biol. 1989 June; 108(6):2477-82). […] Then, the mRNA expression of ACTA2, ADAMTS12, LPL, COL1A1, MMP2, TGFβ-1 and TIMP1 was assessed in LX-2 cells in 3D GelMa culture, stimulated or not by TGFβ-1 (FIGS. 14A-G, respectively). […]

[2] = system: HepaRG cells in coculture with LX-2 cells and HUVECs (CoC); assay: LDH release in coculture (CoC); type: cell-based; details: 5 ng/mL every 48 h for 7 days
Procedure: (§1) Cell viability was assessed by using the WST-1 (water soluble tetrazolium-1) proliferation assay on cell laden 3D constructs at different days or times of culture. Briefly, the cell laden 3D constructs were treated with 100 μL of WST-1 reagent and incubated 30 min at 37° C. Absorbance at 440 nm was read in a microplate reader (SpectrostarNano, BMG labtech, Champigny s/Marne, FR) and the values were converted into percentage of absorbance by comparison with controls assessed at day 0 or time 0. Measurement of lactate dehydrogenase (LDH) was performed on supernatants with the LDH-Glo™ Cytotoxicity Assay (Promega) by following manufacturer's instructions.

HepaRG or HepaRG+HUVECs = assay: Pro-collagen 1a1 secretion (ELISA) in HepaRG or HepaRG+HUVECs; type: cell-based, human; details: day 21
Procedure: (§2) Medium samples were taken for the determination of albumin and urea content every 48 h. Secreted albumin and proCol1a1 (pro-collagen 1 alpha 1) were quantified using the human serum albumin Duoset Enzyme Linked Immunosorbent Assay (ELISA) kit (R&D systems, Minneapolis, MN, USA) and the human pro-Col1a1 Duoset Enzyme Linked Immunosorbent Assay kits (R&D systems, Minneapolis, MN, USA), according to manufacturer's instructions. Quantification was performed by measuring absorbance at 450 nm using a microplate reader (SpectrostarNano, BMG labtech, Champigny s/Marne, FR). Urea secretion in the medium was measured using a ChromaDazzle Urea Assay kit (AssayGenie, Dublin, IR) according to the manufacturer's protocol, using medium as standard and reading the absorbance at 420 nm (SpectrostarNano, BMG labtech, Champigny s/Marne, FR)

LX-2 cells [3] = assay: SHG microscopy of fibrillar collagen, LX-2 cells alone in 3D GelMa; type: cell-based, human; details: LX-2 cells cultured alone in 3D GelMa, after induction
Procedure: (§3) TPEF/SHG microscopy imaging was performed on mRIC facility of Biosit, University of Rennes1 (France). The SHG imaging system is composed of a confocal TCS SP5 scanning head (Leica Microsystems, Mannheim, Germany) mounted on a DMIRE2 inverted microscope (Leica Microsystems) and equipped with a MAITAI femtosecond laser (Spectra Physics, Santa Clara, CA). 60× water immersion objective (Olympus LUMFL 60 W×1.1NA) was used for applying an 820 nm excitation to the sample. The SHG signal was collected in the forward direction using the condenser (S1, NA ¼ 0.9-1.4; Leica Microsystems), and the TPEF was epi-collected in the backward direction. IRSP 715 bandpass and 410 nm infrared (IR) filters (10 nm full width at half-maximum, FWHM) were placed before the photomultiplier tube. The image processing was performed with ImageJ software (National Institutes of Health).
(§4) SHG microscopy was used to visualize fibrillar collagen, mostly collagen-1 and -3. Briefly, SHG relies on the nonlinear optical interactions with […] fibrillar structures, such as collagen type I, allowing their detection and quantification in 3D tissues. […] For example, such culture is not suitable for the study of liver fibrosis.

[4] = system: HepaRG cells in coculture with LX-2 cells and HUVECs (CoC); assay: mRNA expression (RT-qPCR) in HepaRG + LX-2 + HUVECs coculture (CoC) in 3D GelMa; type: cell-based, human
Procedure: After 1, 2 and 4 week(s) of culture, 3D constructs comprising 3D cell structures were harvested, washed twice in PBS and total ribonucleic acid (RNA) was extracted using TRIzol™ reagent. The concentration of total RNA was measured with a NanoDrop ND-1000 (NanoDrop Technologies). Complementary deoxyribonucleic acid (cDNA) was synthetized using the High Capacity cDNA reverse transcriptase kit (Applied Biosystems Foster City, CA, USA), and real-time polymerase chain reaction (PCR) was performed using the Power SYBR Green PCR master mix (Applied Biosystems Foster City, CA, USA). Basic local alignment search tool (BLAST) was used to design primer sequences which were purchased from Eurogentec (Searing, BE). The expression levels of the target genes were normalized to those of GAPDH and determined by the ΔΔCt method. Final results were expressed as the n-fold difference in target gene expression in samples when compared with the mean expression values of the target gene for controls: either non-differentiated HepaRG (referred to as 2D) or HepaRG differentiated in standard 2D culture conditions (referred to as 2D DMSO). All results are presented as mean±SD of at least n=3 experiments.
(§5) For coculture constructs, the bioprinted 3D structure comprising HepaRG cells and LX-2 cells was cultured during a week, before being put in a low attachment plate containing 1×10^6 HUVECs per mL of medium.
The mRNA expression of hepatic genes (ALB, ALDOB, PPARA and SERPINA1) and of myofibroblastic transition genes and extracellular matrix remodeling genes (ACTA2, ADAMTS12, COL1A1, COL3A1, MMP2, MMP9 and TIMP1) was assessed at day 21 (i) in HepaRG alone in 3D GelMa culture, (ii) in HepaRG in 3D GelMa culture with LX-2 cells and HUVECs (CoC) and (iii) in HepaRG in 3D GelMa culture with LX-2 cells and HUVECs (CoC) activated with TGFβ-1 treatment for 7 days (FIGS. 16A-K). […] The albumin secretion of the HepaRG cells in coculture with the LX-2 cells and HUVECs (CoC) was also assessed and compared to that of HepaRG cells cultured alone (HepaRG) and bioprinted in GelMa matrix under the same conditions.

HepaRG cells [5] = assay: SHG microscopy of fibrillar collagen, HepaRG cells alone in 3D GelMa; type: cell-based, human; details: HepaRG cells cultured alone in 3D GelMa, with or without treatment
Procedure: as §3, §4

[6] = system: HepaRG cells in coculture with LX-2 cells and HUVECs (CoC); assay: Albumin, urea and pro-collagen 1a1 secretion in coculture (CoC); type: cell-based, human
Procedure: as §2, §5

[7] = type: physicochemical
Procedure: The physical properties of different methacrylated gelatin matrices (GelMa matrices) were analyzed by assessing the polymerization and bioprinting properties of the matrices as a function of the GelMa concentration, the photoinitiator LAP concentration and the illumination time at 405 nm (FIG. 1). As shown on FIG. 1A, at 20° C. a concentration of GelMa of 2.5% was not sufficient to ensure a proper polymerization of the matrix and subsequently, an optimal viscosity for the bioprinting process. As shown on FIG. 1B, a minimum concentration of LAP (i.e., 0.1% (w/v)) and an optimized illumination time (i.e., 60 seconds) were defined to reduce the phototoxicity and the production of excess free radicals while maintaining sufficient structural integrity of the printed GelMa for 28 days at 37° C. As shown on FIGS. 1C-D, weight loss of the matrices was assessed as a function of the photoinitiator LAP concentration (either 0.1% (w/v) on FIG. 1C or 0.3% (w/v) on FIG. 1D) and the illumination time at 405 nm. A rapid decrease of the matrix weight, of up to about 40%, was observed 5 hours after the polymerization process (FIG. 1C-D). Then, a constant weight for at least 28 days was observed, indicating a good stability of the matrix in the culture medium at 37° C. (FIGS. 1C-D). […]

HuH-7 cells [8] = type: cell-based, human
Procedure: as §1

HepaRG cells [9] = details: HepaRG cells in 3D GelMa culture, in the presence of U126 (16.4% in its absence); data not shown
HuH-7 cells [10] = assay: Cleaved caspase 3 (apoptosis) in HuH-7 cells in 3D GelMa culture; type: cell-based, human; details: treatment at day 14, data not shown
Procedure: Cell laden 3D constructs were fixed in 4% formaldehyde, washed 3 times in PBS and stored at 4° C. until use or immediately suspended in a 0.12 M phosphate buffer containing 10% w/v saccharose and incubated overnight. They were embedded in a protective matrix composed of gelatin 7.5% w/v and 10% w/v saccharose, then frozen in isopentane and cryosectioned at a thickness of 7 μm. Slides were stained on the Discovery Automated IHC stainer using the discovery Rhodamin kit (Ventana Mediacl systems, Tucson, AZ, USA). The concentrations and references of the primary antibodies that were used can be found in Table 1 below. After rinsing, signal enhancement was performed using the Ventana Rhodamin kit and secondary antibody anti-rabbit HRP (760-4311, Roche) or secondary antibody anti-mouse HRP (760-4310, Roche) for 16 min of incubation. After removal from the instrument, slides were manually rinsed, stained when required with albumin antibody then a secondary antibody for albumin detection (Donkey anti goat 488), and mounted with Dapi Fluoromount-G.

[11] = CoC, day 21, 5 ng/mL every 48 h for 7 days

In the case of “TGFβ-1: a classical pro-fibrotic cytokine”, the “mRNA expression of ACTA2, COL1A1, MMP2 and TIMP1” value (LX-2 cells [1]) was “clearly increased in a time-dependent manner”, the “release of LDH (a cell death marker) in the medium” value [2] was “no specific release” and the “pro-collagen 1a1 secretion” value (HepaRG or HepaRG+HUVECs) was “significatively induces its secretion”. For the same compound, the “collagen fibrils (SHG microscopy)” value (LX-2 cells [3]) was “Very few collagen fibrils or no collagen fibrils at all; also recorded: no collagen fibrils were ever observed”, the “expression of genes involved in ECM homeostasis (ACTA2, ADAMTS12, COL1A1, COL3A1, MMP2, MMP9 and TIMP1)” value [4, 11] was “increase” and the “hepatic gene mRNA expression (ALB, ALDOB, PPARA and SERPINA1)” value [4, 11] was “decrease”. For the same compound, the COL1A1 expression ([4]; HepaRG alone, HepaRG+HUVECs and CoC (all three conditions)) was “significant increase”, the “collagen deposition (SHG microscopy)” value (HepaRG cells [5]) was “No collagen deposition” and the albumin secretion ([6]; CoC, 5 ng/mL every 48 h for 7 days) was “decrease”. For the same compound, the urea secretion ([6]; CoC, over the 21 days of culture, with or without treatment, data not shown) was “remained stable” and the “pro-collagen 1a1 secretion” value ([6]; HepaRG+LX-2+HUVECs (CoC), day 21) was “no significant increase”.
In the case of methacrylated gelatin [GelMa], the “constant weight (stability of the matrix in the culture medium)” value [7] was “at least 28 days” and the “HuH-7 cell viability (WST-1 proliferation assay)” value (HuH-7 cells [8]) was “no decrease”.
Work on `N#CC(=C(/N)Sc1ccccc1N)/C(C#N)=C(/N)Sc1ccccc1N` [U126] yielded an EdU positive cells (HepaRG cells [9]) of 0.9%.
In the case of `N.N.[Cl][Pt][Cl]` [cisplatin], the “response of the cells to an apoptotic inducer (caspase 3)” value (HuH-7 cells [10]) was “responded well”.

— patent US12590296B2, “Method of culturing immortalized human hepatic progenitors or cells” (INSERM (INSTITUT NATIONAL DE LA SANTÉ ET DE LA RECHERCHE …, priority 2019, dated 2026)
